According to patent publication US8207136B2, “Nucleoside compounds and methods of use thereof” (The Board of Trustees of the University of Illinois, priority 2005, dated 2012):

Columns and labels:
Akt = Akt Ser473 phosphorylation immunoblot in mAkt-overexpressing cells; format: cell-based; conditions: Rat1a-mAkt and MCF7-mAkt cells, 24 hours
Method: FIG. 9. ARC interferes with the Akt pathway by inhibiting phosphorylation of Akt. Rat1a and MCF-7 cells overexpressing myristoylated-Akt (mAkt) were treated with the indicated concentration of ARC for 24 hours, after which the cell lysates were used for immunoblotting with total and phospho-Ser473 specific Akt antibodies.
Another survival pathway that protects mitochondrial integrity is the Akt (AKT8 virus oncogene cellular homolog) pathway. In order to see if this pathway is affected, two different cell lines that overexpress myrisotylated-Akt (Rat1a-mAkt, and MCF7-mAkt) were used. Myristolated-Akt is a membrane-targeted Akt, a kinase involved in anti-apoptotic signaling.

[1] = system: MCF-7 breast cancer cells; test: Apoptosis assays in MCF-7 breast cancer cells; format: cell-based, human
Method: Immunoblotting was performed as described with antibodies specific for p53 (sc-126 HRP; Santa Cruz), hdm2 (sc-965; Santa Cruz), p21 (556431; BD Pharmingen), Sp1 (sc-59; Santa Cruz), survivin (sc-10811; Santa Cruz), phospho RNA polymerase II (4735; Cell Signaling), total RNA polymerase II (8WG16; a gift from Dr. Schlegel, University of Illinois at Chicago), α-tubulin (T9026; Sigma), cleaved caspase-3 (9664; Cell Signaling), caspase-9 (9502; Cell Signaling) and β-actin (A5441; Sigma) antibodies.
Apoptosis was detected either by DAPI (4′,6-diamidino-2-phenylindole) staining or by Flow Cytometry after PI (Propidium Iodide) staining. For DAPI staining, all treatments (DMSO or ARC) were done in triplicates in 6-well plates and cells were stained with DAPI and visualized by fluorescent microscopy. Four random fields for each sample were photographed and at least 500 cells per field were counted to estimate apoptosis. The data is represented as mean±Standard deviation (sd).
In order to further characterize ARC with respect to its apoptotic potential, cell lines derived from cancers of different origin were utilized. MCF-7 breast cancer cells underwent apoptosis (around 45% and 55%, respectively, with 10 and 20 μM of ARC) after 24 hours of treatment (FIGS. 5A and 5B). […] To evaluate the extent to which ARC-mediated apoptosis is p53-dependent, an MCF-7 cell line that stably expresses a short hairpin RNA (shRNA) targeting p53 (MCF-7-p53si) was used.

NNc1c(C(N)=O)c2c(N)ncnc2n1[C@@H]1O[C@H](CO)[C@@H](O)[C@H]1O [ARC, 4-amino-6-hydrazino-7-beta-D-ribofuranosyl-7H-pyrrolo[2,3-d]-pyrimidine-5-carboxamide]
Ser473 phosphorylation on Akt (Akt): decrease in Ser473 phosphorylation on Akt | apoptosis (DAPI staining) ([1]; 10 μM, 24 hours): around 45% | apoptosis (DAPI staining) ([1]; 20 μM, 24 hours): ~55% | cleavage of caspase-9 ([1]; MCF-7, 24 hours): cleavage of caspase-9 upon ARC treatment was observed | cleavage of caspase-9 ([1]; MCF-7-p53si cells (shRNA targeting p53), 24 hours): Cleavage of caspase-9 was detected
